# Residues, ends and D or L forms follow the SMILES beside them.
# Experiment: Solubility limit in water (gradual water addition, vortex, light microscopy)
# Conditions: not given
row,Compound,solubility [mg/mL]
1,"N[C@@H](Cc1ccccc1)C(=O)N[C@@H](Cc1ccccc1)C(=O)N[C@@H](Cc1ccccc1)C(=O)O [FFF, reference compound] (H-Phe-Phe-Phe-OH)",< 1
2,N[C@@H](Cc1ccccc1)C(=O)N[C@@H](Cc1ccccc1)C(=O)N[C@@H](Cc1ccc(O)cc1)C(=O)O [FFY] (H-Phe-Phe-Tyr-OH),> 250
3,"N[C@@H](Cc1ccccc1)C(=O)N[C@@H](Cc1ccc(O)cc1)C(=O)N[C@@H](Cc1ccccc1)C(=O)O [FYF, reference compound] (H-Phe-Tyr-Phe-OH)",< 5
4,N[C@@H](Cc1ccccc1)C(=O)N[C@@H](Cc1ccc(O)cc1)C(=O)N[C@@H](Cc1ccc(O)cc1)C(=O)O [FYY] (H-Phe-Tyr-Tyr-OH),> 1000
5,N[C@@H](Cc1ccccc1)C(=O)N[C@@H](Cc1ccc(O)cc1)C(=O)O [FY] (H-Phe-Tyr-OH),> 1000
6,N[C@@H](Cc1ccc(O)cc1)C(=O)N[C@@H](Cc1ccccc1)C(=O)N[C@@H](Cc1ccccc1)C(=O)O [YFF] (H-Tyr-Phe-Phe-OH),> 250
7,N[C@@H](Cc1ccc(O)cc1)C(=O)N[C@@H](Cc1ccccc1)C(=O)N[C@@H](Cc1ccc(O)cc1)C(=O)O [YFY] (H-Tyr-Phe-Tyr-OH),> 1000
8,N[C@@H](Cc1ccc(O)cc1)C(=O)N[C@@H](Cc1ccc(O)cc1)C(=O)N[C@@H](Cc1ccccc1)C(=O)O [YYF] (H-Tyr-Tyr-Phe-OH),> 1000
9,"N[C@@H](Cc1ccc(O)cc1)C(=O)N[C@@H](Cc1ccc(O)cc1)C(=O)N[C@@H](Cc1ccc(O)cc1)C(=O)O [YYY, Tyr-Tyr-Tyr] (H-Tyr-Tyr-Tyr-OH)",> 1000

# Experiment: physchem
# Conditions: water
# Procedure: Each amino acid or peptide was weighed. Water was gradually added at room temperature and the solution was vortexed. After each addition of water, the solution was sampled and evaluated under light microscopy; this process was repeated until no visible particles were detected and the concentration was calculated and determined as the solubility limit of the peptide in water.
row,Compound,solubility [mg/mL]
1,N[C@@H](Cc1ccc(O)cc1)C(=O)N[C@@H](Cc1ccccc1)C(=O)O [YF] (H-Tyr-Phe-OH),> 1000
2,N[C@@H](Cc1ccc(O)cc1)C(=O)N[C@@H](Cc1ccc(O)cc1)C(=O)O [YY] (H-Tyr-Tyr-OH),> 1000

# Experiment: not given
# Conditions: in water; marked (literature); cited from earlier work
row,Compound,solubility
1,"N[C@@H](Cc1ccccc1)C(=O)O [F, phenylalanine]",29.6 (literature) milligram/milliliter

# Reference: patent US20260109870A1, “PEPTIDE-BASED NON-CRYSTALLINE MATERIALS AND COMPOSITIONS AND PROCESSES FOR OBTAINING SAME” (Ramot at Tel-Aviv University Ltd., priority 2022, published 2026)
